Reference: patent publication US6399590B2, “Phosphoglycolipid and methods for its use” (Corixa Corporation, priority 1998, dated 2002)

Assays:
[1] = tested on: Adult mongrel dogs, left anterior descending coronary artery (LAD) occlusion/reperfusion; assay: Infarct size in the dog, 60 min LAD occlusion and 3 h reperfusion; assay type: in vivo; settings: L34 35 μg/kg 24 h before occlusion + aminoguanidine (AG) 30 mg/kg s.c. 60 min before occlusion; mean ± SEM; 30 mg/kg
Experimental: Adult mongrel dogs of either sex, weighing 19.0-30.0 kg were fasted overnight, anaesthetized with intravenous sodium barbital (200 mg/kg) and sodium pentobarbital (15 mg/kg), and ventilated with room air supplemented with 100% oxygen at an end expiratory pressure of 5-7 cm H2O to prevent atelectasis. Arterial blood pH PO2 and PCO2 were monitored at selected intervals by an automatic blood gas system and maintained within a normal physiological range (pH 7.35-7.45, PO2 10.6-16.0 kPa, PCO2 3,3-4.7 kPa) by adjusting the respiratory rate and oxygen flow and by an infusion of 1.5% sodium bicarbonate when necessary. Body temperature was maintained at 38±1° C. by using a heating pad.
A double pressure-transducer-tipped catheter was inserted into the aorta and left ventricle via the left carotid artery for measurements of aortic and left ventricular pressure. Left ventricular dP/dt was determined by electronic differentiation of the left ventricular pressure pulse.
A left thoracotomy was performed at the fifth intercostal space. The lung was retracted, the pericardium incised, and the heart suspended in a cradle. A 10-15 mm segment of the left anterior descending coronary artery (LAD) was dissected from surrounding tissue. […]
Regional myocardial blood flow was measured by the radioactive microsphere technique. […]

[2] = tested on: pig model of regional myocardial ischemia/reperfusion; assay: Infarct size in pigs, 40 min LAD occlusion and 3 h reperfusion; assay type: in vivo; settings: i.v. 10 min prior to coronary artery occlusion (35 μg/kg); FIG. 4
Experimental: To assess the efficacy of L34 to reduce infarct size, nine pigs were assigned in a non-blinded fashion to one of four groups: (1) control (n=2), (2) vehicle control (n4), (3) L34 (35 μg/kg) (n=2), (4) L34 (70 μg/kg) (n=1). L34 was formulated in 10% ethanol, 40% propylene glycol in Water for Injection. Blinded studies were additionally conducted with eight pigs randomly assigned to one of two treatment groups: (1) A (n=4), (2) B (n=4). Group A and B were either vehicle control or L34. Vehicle or drug injection was diluted one to one with 5% dextrose in Water for Injection prior to administration.
Male pigs (15-20 kg) were anesthetized with ketamine (25 mg/kg, i.m.) and sodium pentobarbital (10 mg/kg, i.v.), intubated and mechanically ventilated with room air. Pigs were placed on a 37° C. circulating water heating pad. The left carotid artery of each animal was cannulated with 5Fr Millar catheter for measuring left ventricular pressure and the right carotid artery was cannulated with 24G I.V. catheter for sampling blood. A median sternotomy was performed and the pericardium was incised. […]
Following 40 min of occlusion, the snare was released and the myocardium was reperfused for 3 h. The hemodynamic parameters at certain time points were recorded and blood samples were collected. […]

CCCCCCCCCCCCCCCCCC(=O)O[C@H](CCCCCCCCCCC)CC(=O)N[C@H]1[C@H](OC[C@H]2OC(O)[C@H](NC(=O)C[C@@H](CCCCCCCCCCC)OC(=O)CCCCCCCCCCCCCCC)[C@@H](O)[C@@H]2O)O[C@H](CO)[C@@H](OP(=O)(O)O)[C@@H]1OC(=O)C[C@@H](CCCCCCCCCCC)OC(=O)CCCCCCCCCCCCC (stereo partly drawn) [L34, 2-Deoxy-6-O-[2-deoxy-4-O-phosphono-3-O-[(R)-3-tetradecanoyloxytetradecanoyl]-2-[(R)-3-octadecanoyloxytetradecanoylamino]-β-D-glucopyranosyl]-2-[(R)-3-hexadecanoyloxytetradecanoylamino]-D-glucopyranose]
IS/AAR(%) (infarct size / area at risk) [1]: 25.2±2.7%
reduction in infarct size expressed as % AN/AR in g compared to controls [2]: 46%
